# Test results: patent US8226989B2, “Anti-adipocyte fatty acid-binding protein (AP2), anti-flap and anti-CySLT1 receptor herbal compositions” (Laila Impex, priority 2008, dated 2012)
# System: adipocyte fatty acid-binding protein aP2
# Test: aP2 protein expression in LPS induced THP-1 monocyte-macrophage cells (immuno-western blot)
# Assay type: cell-based, human
# Conditions: THP-1 cells pre-treated 2 h, then LPS; extracts 5 or 10 μg/ml, 5-Loxin 5 μg/ml, montelukast 1 μM, NDGA 10 μM
# Description: In this experiment, THP-1 human monocyte-macrophage cells were pre-treated with 5 or 10 μg/ml of each ingredient for 2 h and thereafter printed with LPS to induce the inflammatory response. The cellular proteins were extracted by cell lysis buffer and subjected to Immuno-Western blot to detect the modulation of expression of aP2 protein.
# The cellular proteins were extracted by cell lysis buffer and subjected to immuno-western blot to detect the modulation of expression of aP2 protein.
# Similar experiment was also conducted on Aegle marmelos, Zingiber officinale and G. mangostana extracts.
compound,measurement,value
"CC(Cc1ccc(O)c(O)c1)C(C)Cc1ccc(O)c(O)c1 (stereo not shown) [NDGA, Nordihydroguaiaretic Acid]",inhibition of LPS induced aP2 protein expression,significantly reduced
